According to PMC5829162, “Rational Design, Synthesis and Biological Evaluation of Pyrimidine-4,6-diamine derivatives as Type-II inhibitors of FLT3 Selective Against c-KIT” (Scientific Reports, 2018):

Experiments:
FLT3 kinase = molecular target: T1, FLT3 kinase (Homo sapiens, UniProt P36888); assay: Biochemical enzyme inhibition assay (microfluidics, Caliper EZ Reader II), FLT3
T1 construct: purchased Invitrogen
T1 sequence (P36888 27-993): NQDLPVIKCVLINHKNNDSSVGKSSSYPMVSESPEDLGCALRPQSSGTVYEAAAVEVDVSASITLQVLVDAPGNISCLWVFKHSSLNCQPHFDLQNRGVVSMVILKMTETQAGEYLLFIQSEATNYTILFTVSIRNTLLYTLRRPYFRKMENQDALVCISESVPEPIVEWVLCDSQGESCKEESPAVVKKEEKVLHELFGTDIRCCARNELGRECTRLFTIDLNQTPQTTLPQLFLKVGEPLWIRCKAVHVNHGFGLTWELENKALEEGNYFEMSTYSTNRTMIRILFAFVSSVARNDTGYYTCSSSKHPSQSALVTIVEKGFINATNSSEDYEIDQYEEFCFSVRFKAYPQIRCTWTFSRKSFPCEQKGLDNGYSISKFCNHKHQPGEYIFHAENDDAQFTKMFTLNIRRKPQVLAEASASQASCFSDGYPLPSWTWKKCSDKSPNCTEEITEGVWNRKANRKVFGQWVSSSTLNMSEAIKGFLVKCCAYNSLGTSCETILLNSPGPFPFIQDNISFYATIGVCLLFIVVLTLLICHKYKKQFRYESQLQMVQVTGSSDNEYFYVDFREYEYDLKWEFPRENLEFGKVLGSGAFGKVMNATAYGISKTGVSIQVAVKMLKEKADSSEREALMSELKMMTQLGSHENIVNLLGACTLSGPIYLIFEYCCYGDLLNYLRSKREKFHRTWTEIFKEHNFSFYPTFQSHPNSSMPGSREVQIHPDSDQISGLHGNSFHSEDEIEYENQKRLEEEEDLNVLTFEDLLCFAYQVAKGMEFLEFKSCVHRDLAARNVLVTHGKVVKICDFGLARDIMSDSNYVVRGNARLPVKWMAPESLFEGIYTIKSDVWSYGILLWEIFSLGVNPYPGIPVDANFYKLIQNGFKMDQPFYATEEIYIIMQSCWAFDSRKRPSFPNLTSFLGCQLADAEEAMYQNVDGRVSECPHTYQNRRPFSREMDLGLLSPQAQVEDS
Experimental: Kinase activity was measured in a microfluidics assay that monitors the separation of a phosphorylated product from substrate[31],[32]. […] After, 1 μL was transferred into a 384-well polypropylene assay plate (Greiner, Frickenhausen, Germany). The FLT3 enzyme (Invitrogen™, Grand Island, USA) was diluted in kinase buffer to a concentration of 2 nM and 5 µL of the enzyme mixture was transferred to the assay plate. The inhibitors/FLT3 enzyme were incubated for 60 minutes with minor shaking. […] For positive control, no inhibitor was added. For negative control, no enzyme was added. For running control, quizartinib was utilized. The plate was run until 10–20% conversion based on the positive control wells. The following separation conditions were utilized: upstream voltage −500V; downstream voltage, −1900V; chip pressure −0.8. Percent inhibition was measured for each well comparing starting peptide to phosphorylated product peaks relative to the baseline. Dose response curves, spanning the IC50 dose, were generated in GraphPad Prisim 6 and fit to an exponential one-phase decay line and IC50 values were obtained from the half-life value of the curve. IC50 values were generated in duplicate and error was calculated from the standard deviation between values.
S10. Biochemical Inhibition Assay:1,2 Kinase activity was measured in a microfluidics assay that monitors the separation of a phosphorylated product from substrate. The assay was run using a 12-sipper chip on a Caliper EZ Reader II (PerkinElmer®, Walthman, USA) with separation […]
Walthman, USA]). In 96-well polypropylene plates (Greiner, Frickenhausen, Germany) […]
After, 1 μL was transferred into a 384-well polypropylene assay plate (Greiner, Frickenhausen, Germany). The FLT3 enzyme (Invitrogen™, Grand Island, USA) was diluted in kinase buffer to a concentration of 2 nM and 5 µL of the enzyme mixture was transferred to the assay plate. The inhibitors/FLT3 enzyme were incubated for 60 minutes with minor shaking. A substrate mix was prepared containing ATP (Ambresco®, Solon, USA) and […]
USA) dissolved in kinase buffer, and 5 µL of the substrate mix was added to the assay plate.
For positive control, no inhibitor was added. For negative control, no enzyme was added. For running control, quizartinib was utilized. The plate was run until 10-20% conversion based on the positive control wells. The following separation conditions were utilized: upstream voltage -500V; downstream voltage, -1900V; chip pressure - 0.8. Percent inhibition was measured for each well comparing starting peptide to phosphorylated product peaks relative to the baseline. Dose response curves, spanning the IC50 dose, were generated in GraphPad Prisim 6 and fit to an exponential one-phase decay line and IC50 values were obtained from the half-life value of the curve. IC50 values were generated in duplicate and error was calculated from the standard deviation between values. […]

MV4–11 AML cells = assay: Cell proliferation (CellTiter-Glo, 48 h), MV4-11; format: cell-based; conditions: Homo sapiens; MV4–11, 48 hours
Text: (§1) Stable BaF3 populations expressing activated FLT3 were generated by retroviral spinfection with the appropriate mutated plasmid followed by selection and growth factor withdrawal as previously described. The BaF3 cell line was originally obtained from the laboratory of Charles Sawyers and has not been authenticated. MV411 and Molm14 cells were obtained from the laboratory of Scott Kogan and authenticated by Promega STR analysis in June 2013. All cell lines were mycoplasma-free. Cells were incubated with compounds for 48 hours and proliferation was assessed using CellTiter-Glo (Promega; Madison, WI) according to the manufacturer’s recommendation on a SpectraMax M3 microplate reader using SpectraMax Software (Molecular Devices; Sunnyvale, CA). All cell viability data shown is reflective of experiments performed a minimum of three times. […]
S13. Cell Cultures: Stable BaF3 populations expressing activated FLT3 were generated by retroviral spinfection with the appropriate mutated plasmid followed by selection and growth factor withdrawal as previously described .4 The BaF3 cell line was originally obtained from the laboratory of Charles Sawyers and has not been authenticated. MV411 and Molm14 cells were obtained from the laboratory of Scott Kogan and authenticated by Promega STR analysis in June
2013. All cell lines were mycoplasma -free. Cells were incubated with compounds for 48 hours and proliferation was assessed using CellTiter -Glo (Promega; Madison, WI) according to the manufacturer’s recommendation on a SpectraMax M3 microplate reader using SpectraMax Software (Molecular Devices; Sunnyvale, CA). All cell viability data shown is reflective of experiments performed a minimum of three times.

FLT3-driven cell lines = assay: Cell-based studies, FLT3-driven cell lines overall; conditions: result in words
Text: as §1
S13. […]
2013. […] Cells were incubated with compounds for 48 hours and proliferation was assessed using CellTiter -Glo (Promega; Madison, WI) according to the manufacturer’s recommendation on a SpectraMax M3 microplate reader using SpectraMax Software (Molecular Devices; Sunnyvale, CA). […]

IC50 (FLT3 kinase; in vitro kinase assay, 60 min pre-incubation, ATP 190 µM, three independent experiments, read-out: FLT3 IC50 (nM) ± SD): 377 ± 20 nM
LE (FLT3 kinase; ligand efficiency for FLT3 inhibition): 0.24
GI50 (MV4–11 AML cells): 2250 nM
Compound: Cn1nc(C(C)(C)C)cc1NC(=O)Cc1ccc(Nc2cc(NCCCN3CCCC3)ncn2)cc1 [13d, 2-(4-(6-(3-(Pyrrolidin-1-yl)propylamino)pyrimidin-4-ylamino)phenyl)-N-(3-tert-butyl-1-methyl-1H-pyrazol-5-yl)acetamide]
inhibition of FLT3-driven cellular growth (FLT3-driven cell lines): failed to effectively inhibit FLT3-driven cellular growth
